According to patent publication US20200361895A1, “NOVEL SULFONAMIDE CARBOXAMIDE COMPOUNDS” (Inflazome Limited, priority 2017, published 2020):
Where a name gives a salt, the structure may show the parent alone.

Assays:
NLRP3 [1] = molecular target: T1, NLRP3 (Homo sapiens, UniProt Q96P20); assay: Human whole blood IL1β release assay (LPS + nigericin, AlphaLisa IL-1β; HWB IC50); assay type: cell-based; set-up: Human whole blood in Li-heparin tubes was obtained from healthy donors from a volunteer donor panel; from tissue; host or cells: human whole blood from healthy donors; conditions: IL-1β release
T1 sequence (Q96P20 whole entry): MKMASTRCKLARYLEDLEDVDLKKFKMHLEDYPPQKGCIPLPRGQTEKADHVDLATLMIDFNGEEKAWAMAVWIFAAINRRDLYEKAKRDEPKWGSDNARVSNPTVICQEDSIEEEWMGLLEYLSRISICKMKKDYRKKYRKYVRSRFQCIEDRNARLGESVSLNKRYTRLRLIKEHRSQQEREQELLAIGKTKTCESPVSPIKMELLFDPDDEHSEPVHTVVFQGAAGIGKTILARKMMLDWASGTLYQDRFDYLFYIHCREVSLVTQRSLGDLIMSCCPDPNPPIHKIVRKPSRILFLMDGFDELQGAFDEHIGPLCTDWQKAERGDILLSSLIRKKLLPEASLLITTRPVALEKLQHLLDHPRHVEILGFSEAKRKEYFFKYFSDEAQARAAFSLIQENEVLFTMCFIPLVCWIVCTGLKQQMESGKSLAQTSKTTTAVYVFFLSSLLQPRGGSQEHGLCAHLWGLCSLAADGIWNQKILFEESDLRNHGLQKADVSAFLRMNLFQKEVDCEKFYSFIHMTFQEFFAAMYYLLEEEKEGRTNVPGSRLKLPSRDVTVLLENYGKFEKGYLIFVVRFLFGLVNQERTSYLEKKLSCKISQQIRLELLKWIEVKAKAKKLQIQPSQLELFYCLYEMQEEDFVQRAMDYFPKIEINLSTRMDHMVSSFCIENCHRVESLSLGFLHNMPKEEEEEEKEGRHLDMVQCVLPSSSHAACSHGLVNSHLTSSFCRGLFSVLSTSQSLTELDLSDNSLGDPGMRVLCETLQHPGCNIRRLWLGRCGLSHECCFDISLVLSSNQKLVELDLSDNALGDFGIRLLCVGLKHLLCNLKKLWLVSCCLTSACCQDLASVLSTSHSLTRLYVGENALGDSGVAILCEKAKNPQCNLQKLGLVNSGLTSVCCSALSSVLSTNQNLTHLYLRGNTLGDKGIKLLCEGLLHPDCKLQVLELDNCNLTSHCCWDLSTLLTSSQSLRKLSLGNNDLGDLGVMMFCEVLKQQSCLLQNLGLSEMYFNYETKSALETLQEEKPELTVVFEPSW
How it was run: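 IL-1β in plasma supernatant quantified by AlphaLisa after nigericin (10 μM final, 1 h, 37 °C) triggering of human whole blood that had been preincubated 3 h with LPS (1 μg/ml) plus compound (half-log, 8 points, from 10 μM). IC50 by variable-slope four-parameter regression.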

NLRP3 [2] = molecular target: T1, NLRP3; assay: THP-1 cells pyroptosis assay (LPS + nigericin, resazurin readout; THP IC50); assay type: cell-based; set-up: Seed THP-1 cells (25,000 cells/well) containing 1.0 μg/ml LPS in 40 μl of RPMI medium; host or cells: THP-1 cells
How it was run: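 IC50 from 4-parameter fit of resazurin fluorescence (100 μM, 1-2 hrs), reflecting surviving cells after pyroptosis. LPS-primed (1 μg/ml) THP-1 cells in FBS-free RPMI got compound for 3 hrs at 37° C (top 10 μM, half-log, 8 points), then nigericin 5 μM for 1 hr.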

Structure (SMILES)	IC50 (NLRP3 [1]) [nM]	IC50 (NLRP3 [2]) [nM]
COCCN(CCOC)C(=O)c1cc(S(=O)(=O)NC(=O)Nc2c(-c3ccnc(OC)c3)ccc3c2CCC3)nn1C [Example 167, N,N-Bis(2-methoxyethyl)-3-(N-((5-(2-methoxypyridin-4-yl)-2,3-dihydro-1H-inden-4-yl)carbamoyl)sulfamoyl)-1-methyl-1H-pyrazole-5-carboxamide, sodium salt]	≤ 500	≤ 500
COc1cc(-c2ccc3c(c2NC(=O)NS(=O)(=O)c2cc(C(=O)N(C)C)n(C)n2)CCC3)ccn1 [Example 169, 3-(N-((5-(2-Methoxypyridin-4-yl)-2,3-dihydro-1H-inden-4-yl)carbamoyl)sulfamoyl)-N,N,1-trimethyl-1H-pyrazole-5-carboxamide, sodium salt]	≤ 500	≤ 500
COc1cc(-c2cc(F)c3c(c2NC(=O)NS(=O)(=O)c2ccn(C4CC4)n2)CCC3)ccn1 [Example 170, 1-Cyclopropyl-N-((7-fluoro-5-(2-methoxypyridin-4-yl)-2,3-dihydro-1H-inden-4-yl)carbamoyl)-1H-pyrazole-3-sulfonamide, sodium salt]	≤ 1000	≤ 500
COc1cc(-c2cc(C3CC3)c3c(c2NC(=O)NS(=O)(=O)c2ccn(C4CC4)n2)CCC3)ccn1 [Example 171, 1-Cyclopropyl-N-((7-cyclopropyl-5-(2-methoxypyridin-4-yl)-2,3-dihydro-1H-inden-4-yl)carbamoyl)-1H-pyrazole-3-sulfonamide, sodium salt]	≤ 5000	≤ 500
COc1cc(-c2cc(F)c3c(c2NC(=O)NS(=O)(=O)c2ccn(C4CCC4)n2)CCC3)ccn1 [Example 172, 1-Cyclobutyl-N-((7-fluoro-5-(2-methoxypyridin-4-yl)-2,3-dihydro-1H-inden-4-yl)carbamoyl)-1H-pyrazole-3-sulfonamide, sodium salt]	≤ 1000	≤ 500
COc1cc(-c2ccc3c(c2NC(=O)NS(=O)(=O)CCOC(C)C)CCC3)ccn1 [Example 174, 2-Isopropoxy-N-((5-(2-methoxypyridin-4-yl)-2,3-dihydro-1H-inden-4-yl)carbamoyl)ethanesulfonamide, sodium salt]	≤ 1000	≤ 500
COc1cc(-c2ccc3c(c2NC(=O)NS(=O)(=O)CCOC(C)C)CCO3)ccn1 [Example 175, 2-Isopropoxy-N-((5-(2-methoxypyridin-4-yl)-2,3-dihydrobenzofuran-4-yl)carbamoyl)ethanesulfonamide, sodium salt]	≤ 500	≤ 500
COc1cc(-c2ccc3c(c2NC(=O)NS(=O)(=O)c2ccc(CN(C)C)nc2)CCC3)ccn1 [Example 176, 6-((Dimethylamino)methyl)-N-((5-(2-methoxypyridin-4-yl)-2,3-dihydro-1H-inden-4-yl)carbamoyl)pyridine-3-sulfonamide]	≤ 500	≤ 500
CC(C)n1ccc(S(=O)(=O)NC(=O)Nc2c(-c3cccnc3)ccc3c2CCCC3)n1 [Example 179, 1-Isopropyl-N-((2-(pyridin-3-yl)-5,6,7,8-tetrahydronaphthalen-1-yl)carbamoyl)-1H-pyrazole-3-sulfonamide]	≤ 5000	≤ 5000
N#Cc1cc(-c2ccc3c(c2NC(=O)NS(=O)(=O)c2ccn(C4CCOC4)n2)CCC3)ccn1 (stereo not shown) [Example 181, N-((5-(2-Cyanopyridin-4-yl)-2,3-dihydro-1H-inden-4-yl)carbamoyl)-1-(tetrahydrofuran-3-yl)-1H-pyrazole-3-sulfonamide, sodium salt]	≤ 500	≤ 500
COc1cc(-c2ccc3c(c2NC(=O)NS(=O)(=O)c2ccn(C[C@@H](C)O)n2)CCC3)ccn1 [Example 184, (R)-1-(2-Hydroxypropyl)-N-((5-(2-methoxypyridin-4-yl)-2,3-dihydro-1H-inden-4-yl)carbamoyl)-1H-pyrazole-3-sulfonamide]	≤ 500	≤ 500
COc1cc(-c2ccc3c(c2NC(=O)NS(=O)(=O)c2ccn(CC(C)(C)OC)n2)CCC3)ccn1 [Example 185, 1-(2-Methoxy-2-methylpropyl)-N-((5-(2-methoxypyridin-4-yl)-2,3-dihydro-1H-inden-4-yl)carbamoyl)-1H-pyrazole-3-sulfonamide]	≤ 500	≤ 500
COc1cc(-c2ccc3c(c2NC(=O)NS(=O)(=O)c2ccn(CC(C)(C)O)n2)CCC3)ccn1 [Example 186, 1-(2-Hydroxy-2-methylpropyl)-N-((5-(2-methoxypyridin-4-yl)-2,3-dihydro-1H-inden-4-yl)carbamoyl)-1H-pyrazole-3-sulfonamide]	≤ 500	≤ 500
COc1cc(-c2ccc3c(c2NC(=O)NS(=O)(=O)c2ccn(C4CCOC4)n2)CCC3)ccn1 (stereo not shown) [Example 187, N-((5-(2-Methoxypyridin-4-yl)-2,3-dihydro-1H-inden-4-yl)carbamoyl)-1-(tetrahydrofuran-3-yl)-1H-pyrazole-3-sulfonamide]	≤ 500	≤ 500
COc1cc(-c2ccc3c(c2NC(=O)NS(=O)(=O)c2cc(C4(OC)COC4)n(C)n2)CCC3)ccn1 [Example 188, 5-(3-Methoxyoxetan-3-yl)-N-((5-(2-methoxypyridin-4-yl)-2,3-dihydro-1H-inden-4-yl)carbamoyl)-1-methyl-1H-pyrazole-3-sulfonamide]	≤ 500	≤ 500
COc1cc(-c2ccc3c(c2NC(=O)NS(=O)(=O)c2ccn(C(C)(C)C(=O)N(C)C)n2)CCC3)ccn1 [Example 189, 2-(3-(N-((5-(2-Methoxypyridin-4-yl)-2,3-dihydro-1H-inden-4-yl)carbamoyl)sulfamoyl)-1H-pyrazol-1-yl)-N,N,2-trimethylpropanamide]	≤ 500	≤ 500
CNCc1cc(S(=O)(=O)NC(=O)Nc2c(-c3ccnc(OC)c3)ccc3c2CCC3)nn1C1CC1 [Example 190, 1-Cyclopropyl-N-((5-(2-methoxypyridin-4-yl)-2,3-dihydro-1H-inden-4-yl)carbamoyl)-5-((methylamino)methyl)-1H-pyrazole-3-sulfonamide, sodium salt]	≤ 500	≤ 500

Next, values leading:

IC50 (NLRP3 [1]) [nM]	IC50 (NLRP3 [2]) [nM]	Structure (SMILES)
≤ 500	≤ 500	COc1cc(-c2ccc3c(c2NC(=O)NS(=O)(=O)CC2CCN(C)C2)CCC3)ccn1 (stereo not shown) [Example 164, N-((5-(2-Methoxypyridin-4-yl)-2,3-dihydro-1H-inden-4-yl)carbamoyl)-1-(1-methylpyrrolidin-3-yl) methanesulfonamide]
≤ 10000	≤ 5000	COCCN(CCOC)C(=O)c1cc(S(=O)(=O)NC(=O)Nc2c(-c3ccnc(OC(C)C)c3)cc(F)cc2C(C)C)nn1C [Example 166, 3-(N-((4-Fluoro-2-(2-isopropoxypyridin-4-yl)-6-isopropyl-phenyl)carbamoyl)sulfamoyl)-N,N-bis(2-methoxyethyl)-1-methyl-1H-pyrazole-5-carboxamide, sodium salt]
≤ 5000	≤ 500	CC(C)Oc1cc(-c2cc(F)cc(C(C)C)c2NC(=O)NS(=O)(=O)c2cc(C(=O)N(C)C)n(C)n2)ccn1 [Example 168, 3-(N-((4-Fluoro-2-(2-isopropoxypyridin-4-yl)-6-isopropyl-phenyl)carbamoyl)sulfamoyl)-N,N,1-trimethyl-1H-pyrazole-5-carboxamide, sodium salt]
≤ 500	≤ 500	COc1cc(-c2cc(F)c3c(c2NC(=O)NS(=O)(=O)c2ccn(C(C)(C)CN4CCC4)n2)CCC3)ccn1 [Example 173, 1-(1-(Azetidin-1-yl)-2-methylpropan-2-yl)-N-((7-fluoro-5-(2-methoxypyridin-4-yl)-2,3-dihydro-1H-inden-4-yl)carbamoyl)-1H-pyrazole-3-sulfonamide, sodium salt]
≤ 1000	≤ 500	COc1cc(-c2ccc3c(c2NC(=O)NS(=O)(=O)c2ccnc(CN(C)C)c2)CCC3)ccn1 [Example 177, 2-((Dimethylamino)methyl)-N-((5-(2-methoxypyridin-4-yl)-2,3-dihydro-1H-inden-4-yl)carbamoyl)pyridine-4-sulfonamide, sodium salt]
≤ 5000	≤ 500	COc1cc(-c2ccc3c(c2NC(=O)NS(=O)(=O)c2ccnc(C(C)C)c2)CCC3)ccn1 [Example 178, 2-Isopropyl-N-((5-(2-methoxypyridin-4-yl)-2,3-dihydro-1H-inden-4-yl)carbamoyl)pyridine-4-sulfonamide, sodium salt]
≤ 500	≤ 500	COc1cc(-c2ccc3c(c2NC(=O)NS(=O)(=O)c2ccn(C(C)(C)CN4CC(OC)C4)n2)CCC3)ccn1 [Example 180, 1-(1-(3-Methoxyazetidin-1-yl)-2-methylpropan-2-yl)-N-((5-(2-methoxypyridin-4-yl)-2,3-dihydro-1H-inden-4-yl)carbamoyl)-1H-pyrazole-3-sulfonamide]
≤ 500	≤ 500	C[C@@H](O)Cn1ccc(S(=O)(=O)NC(=O)Nc2c(-c3ccnc(C#N)c3)ccc3c2CCC3)n1 [Example 182, (R)-N-((5-(2-Cyanopyridin-4-yl)-2,3-dihydro-1H-inden-4-yl)carbamoyl)-1-(2-hydroxypropyl)-1H-pyrazole-3-sulfonamide, sodium salt]
≤ 500	≤ 500	CC(C)(O)Cn1ccc(S(=O)(=O)NC(=O)Nc2c(-c3ccnc(C#N)c3)ccc3c2CCC3)n1 [Example 183, N-((5-(2-Cyanopyridin-4-yl)-2,3-dihydro-1H-inden-4-yl)carbamoyl)-1-(2-hydroxy-2-methylpropyl)-1H-pyrazole-3-sulfonamide, sodium salt]
